Tested on: Escherichia coli ATCC 25922
Experiment: Minimum inhibitory concentration (MIC), CLSI broth micro-dilution, E. coli
Format: cell-based
Settings: Escherichia coli, ATCC25922, 22 h, Table 6, cation adjusted Mueller Hinton Broth + 0.002% Tween-80, 35° C.
Experimental: In vitro antimicrobial activity of each compound was determined by measuring minimal inhibitor concentrations (MICs) using the broth micro-dilution technique as approved by the Clinical and Laboratory Standards Institute (CLSI) (Methods for Dilution Antimicrobial Susceptibility Tests for Bacteria that Grow Aerobically; Approved Standard-Eighth Edition. CLSI document M07-A8. Wayne, PA: Clinical and Laboratroy Standards; 2009). Antibacterial activity was measure against two strains of bacteria: a Methicillin Resistant Staphylococcus aureus strain USA 200, (S. aureus) and Escherichia coli ATCC 25922 (E. coli), a clinically relevant Gram-negative strain. Cells were inoculated onto plates of Trypyticase Soy Agar or Luria Agar respectively and grown at 35° C. for 20 hours. Inocula suspensions were prepared by scraping cells into 1 mL of testing media (cation adjusted Mueller Hinton Broth supplemented with 0.002% v/v Tween-80) and diluting to a final OD600nm of 0.01.
Test compounds were prepared in DMSO at a concentration of 10 mg/mL. In protocol 1, the compound stocks were diluted into testing media at a concentration of 64 µg/ml and serial 2-fold dilutions were made in the same media, in 96-well U bottom microtiter dishes, for a total of 10 compound concentrations. In protocol 2, the compound stocks were diluted into testing media at a concentration of 4 µg/mL and serial 2-fold dilutions were made in the same media, in 96-well U bottom microtiter dishes, for a total of 10 compound concentrations. In protocol 3, compound stocks were diluted into testing media at a concentration of 0.5 μg/mL, with serial 2-fold dilutions conducted as described above. In protocol 4, compound stocks were diluted into testing media at a concentration of […], with serial 2-fold dilutions conducted as described above. Inocula suspensions were added to the 2-fold serial dilutions of test compounds to a final density of GD OD600nm of 0.0005 and incubated at 35° C. for 22 hours.

Q: For `CCCCOc1c(F)c(F)c(-c2cc(C)c(C(=O)N[C@@H](CCN)C(=O)N(C)[C@@H]3C(=O)N[C@@H](C)C(=O)N[C@H](C(=O)NCC#N)Cc4ccc(OCCN)c(c4)-c4cc3ccc4OCCN)c(C)n2)c(F)c1F` (racemic) [Compound 367, rac-(8S,11S,14S)-3,18-bis(2-aminoethoxy)-N-(cyanomethyl)-11-methyl-14-[methyl-[rac-(2S)-4-amino-2-[[6-(4-butoxy-2,3,5,6-tetrafluoro-phenyl)-2,4-dimethyl-pyridine-3-carbonyl]amino]butanoyl]amino]-10,13-dioxo-9,12-diazatricyclo[13.3.1.12,6]icosa-1(18),2(20),3,5,15(19),16-hexaene-8-carboxamide], which MIC is on record?
A: 0.5 µM

Q: With `Cc1cc(-c2ccc(C(C)(C)C)cc2)cc(N)c1C(=O)N[C@@H](CCN)C(=O)N(C)[C@@H]1C(=O)N[C@@H](C)C(=O)N[C@H](C(=O)NCC#N)Cc2ccc(OCCN)c(c2)-c2cc1ccc2OCCN` (racemic) [Compound 373, rac-(8S,11S,14S)-3,18-bis(2-aminoethoxy)-N-(cyanomethyl)-11-methyl-14-[methyl-[rac-(2S)-4-amino-2-[[2-amino-4-(4-tert-butylphenyl)-6-methyl-benzoyl]amino]butanoyl]amino]-10,13-dioxo-9,12-diazatricyclo[13.3.1.12,6]icosa-1(18),2(20),3,5,15(19),16-hexaene-8-carboxamide] as the compound, how does the MIC read?
A: 0.13 µM

Same assay, conditions: Escherichia coli, ATCC25922, Table 6, cation adjusted Mueller Hinton Broth + 0.002% Tween-80, 35° C., 22 hours

Q: Which MIC does the source give for `CCCCc1ccc(-c2cc(C)c(C(=O)N[C@@H](CCN)C(=O)N(C)[C@@H]3C(=O)N[C@@H](C)C(=O)N[C@H](C(=O)NCC#N)Cc4ccc(OCCN)c(c4)-c4cc3ccc4OCCN)c(C)n2)nc1` (racemic) [Compound 365, rac-(8S,11S,14S)-3,18-bis(2-aminoethoxy)-N-(cyanomethyl)-11-methyl-14-[methyl-[rac-(2S)-4-amino-2-[[6-(5-butyl-2-pyridyl)-2,4-dimethyl-pyridine-3-carbonyl]amino]butanoyl]amino]-10,13-dioxo-9,12-diazatricyclo[13.3.1.12,6]icosa-1(18),2(20),3,5,15(19),16-hexaene-8-carboxamide] here?
A: 0.31 µM

Q: Which MIC does the source give for `Cc1cc(-c2ccc(C(C)(C)C)cc2[N+](=O)[O-])nc(C)c1C(=O)N[C@@H](CCN)C(=O)N(C)[C@@H]1C(=O)N[C@@H](C)C(=O)N[C@H](C(=O)NCC#N)Cc2ccc(OCCN)c(c2)-c2cc1ccc2OCCN` (racemic) [Compound 368, rac-(8S,11S,14S)-3,18-bis(2-aminoethoxy)-N-(cyanomethyl)-11-methyl-14-[methyl-[rac-(2S)-4-amino-2-[[6-(4-tert-butyl-2-nitro-phenyl)-2,4-dimethyl-pyridine-3-carbonyl]amino]butanoyl]amino]-10,13-dioxo-9,12-diazatricyclo[13.3.1.12,6]icosa-1(18),2(20),3,5,15(19),16-hexaene-8-carboxamide] here?
A: 0.5 µM

Q: `Cc1c(Oc2ccc(C(C)(C)C)cc2)ccc(C(=O)N[C@@H](CCN)C(=O)N(C)[C@@H]2C(=O)N[C@@H](C)C(=O)N[C@H](C(=O)NCC#N)Cc3ccc(OCCN)c(c3)-c3cc2ccc3OCCN)c1C` (racemic) [Compound 374, rac-(8S,11S,14S)-3,18-bis(2-aminoethoxy)-N-(cyanomethyl)-11-methyl-14-[methyl-[rac-(2S)-4-amino-2-[[4-(4-tert-butylphenoxy)-2,3-dimethyl-benzoyl]amino]butanoyl]amino]-10,13-dioxo-9,12-diazatricyclo[13.3.1.12,6]icosa-1(18),2(20),3,5,15(19),16-hexaene-8-carboxamide] was tested. Which MIC did it give?
A: 0.25 µM

Q: Which MIC does the source give for `Cc1c(C(=O)N[C@@H](CCN)C(=O)N(C)[C@@H]2C(=O)N[C@@H](C)C(=O)N[C@H](C(=O)NCC#N)Cc3ccc(OCCN)c(c3)-c3cc2ccc3OCCN)cnn(-c2ccc(C(C)(C)C)cc2)c1=O` (racemic) [Compound 387, rac-(8S,11S,14S)-3,18-bis(2-aminoethoxy)-N-(cyanomethyl)-11-methyl-14-[methyl-[rac-(2S)-4-amino-2-[[1-(4-tert-butylphenyl)-5-methyl-6-oxo-pyridazine-4-carbonyl]amino]butanoyl]amino]-10,13-dioxo-9,12-diazatricyclo[13.3.1.12,6]icosa-1(18),2(20),3,5,15(19),16-hexaene-8-carboxamide] here?
A: 8 µM

Q: `C[C@@H]1NC(=O)[C@@H](N(C)C(=O)[C@H](CCN)NC(=O)N2CCC(c3ccc(C(C)(C)C)cc3)CC2)c2ccc(OCCN)c(c2)-c2cc(ccc2OCCN)C[C@@H](C(=O)NCC#N)NC1=O` (racemic) [Compound 390, rac-(8S,11S,14S)-3,18-bis(2-aminoethoxy)-N-(cyanomethyl)-11-methyl-14-[methyl-[rac-(2S)-4-amino-2-[[4-(4-tert-butylphenyl)piperidine-1-carbonyl]amino]butanoyl]amino]-10,13-dioxo-9,12-diazatricyclo[13.3.1.12,6]icosa-1(18),2(20),3,5,15(19),16-hexaene-8-carboxamide] was tested. Which MIC did it give?
A: 8 µM

Q: `C[C@@H]1NC(=O)[C@@H](N(C)C(=O)[C@H](CCN)NC(=O)c2cc([N+](=O)[O-])c(-c3ccc(C(C)(C)C)cc3)nc2N)c2ccc(OCCN)c(c2)-c2cc(ccc2OCCN)C[C@@H](C(=O)NCC#N)NC1=O` (racemic) [Compound 415, rac-(8S,11S,14S)-3,18-bis(2-aminoethoxy)-N-(cyanomethyl)-11-methyl-14-[methyl-[rac-(2S)-4-amino-2-[[2-amino-6-(4-tert-butylphenyl)-5-nitro-pyridine-3-carbonyl]amino]butanoyl]amino]-10,13-dioxo-9,12-diazatricyclo[13.3.1.12,6]icosa-1(18),2(20),3,5,15(19),16-hexaene-8-carboxamide] was tested. Which MIC did it give?
A: 1.5 µM

Q: How did the MIC turn out when `CC(C)Cc1ccc(-c2ncc(C(=O)N[C@@H](CCN)C(=O)N(C)[C@@H]3C(=O)N[C@@H](C)C(=O)N[C@H](C(=O)NCC#N)Cc4ccc(OCCN)c(c4)-c4cc3ccc4OCCN)c(C(F)F)n2)cc1` (racemic) [Compound 418, rac-(8S,11S,14S)-3,18-bis(2-aminoethoxy)-N-(cyanomethyl)-11-methyl-14-[methyl-[rac-(2S)-4-amino-2-[[4-(difluoromethyl)-2-(4-isobutylphenyl)pyrimidine-5-carbonyl]amino]butanoyl]amino]-10,13-dioxo-9,12-diazatricyclo[13.3.1.12,6]icosa-1(18),2(20),3,5,15(19),16-hexaene-8-carboxamide] was run?
A: 0.064 µM

Q: For `C[C@@H]1NC(=O)[C@@H](N(C)C(=O)[C@H](CCN)NC(=O)c2cnc(-c3ccc(C(C)(C)C)cc3)nc2OCC(=O)O)c2ccc(OCCN)c(c2)-c2cc(ccc2OCCN)C[C@@H](C(=O)NCC#N)NC1=O` (racemic) [Compound 420, 2-[2-(4-tert-butylphenyl)-5-[[rac-(1S)-3-amino-1-[methyl-[rac-(7S,10S,13S)-3,18-bis(2-aminoethoxy)-13-(cyanomethylcarbamoyl)-10-methyl-8,11-dioxo-9,12-diazatricyclo[13.3.1.12,6]icosa-1(19),2,4,6(20),15,17-hexaen-7-yl]carbamoyl]propyl]carbamoyl]pyrimidin-4-yl]oxyacetic acid], which MIC is on record?
A: 3 µM

From US20260274892A1, “MACROCYCLIC BROAD SPECTRUM ANTIBIOTICS” (RQx Pharmaceuticals, Inc., priority 2017, published 2026)
